Broadly, the inhibition in vivo is how much of the control response was suppressed. Lower therefore signals a weak effect.

In this experiment the test system is bronchoconstriction induced by PAF. Description: Effect on bronchoconstriction induced by platelet activating factor (PAF) in guinea pigs (Konzett-Rossler method). Type of experiment: in vivo, guinea pig (male Hartley). The following applies: Cavia porcellus, po, drug 30 mg/kg orally in 5% gum arabic solution 1 hour before PAF (1 μg/kg i.v.), recorded for 15 minutes. The procedure:
Effect on Bronchoconstriction Induced by Platelet Activating Factor (PAF) in Guinea Pigs
Male Hartley guinea pigs (body weight 500 g) were used. The bronchoconstriction reaction in the guinea pig which has intravenously received PAF (1 μg/Kg) was measured by the Konzett-Rossler method. The trachea of the guinea pig with its back fixed was incised under anesthesia condition with urethane (intraperitoneal injection, 1.5 g/kg) and connected with an artificial respirator via a cannula. The branch of the tracheal cannula was connected with a transducer (7020 type, Ugobasile). Air was sent to the trachea at the volume of 3-7 ml/stroke, at the rate of 70 strokes/min. at load pressure of 10 cm H2 O to lung and overflowed air volume was recorded with Rectegraph (Recte-Hori-8s, Sanei Sokuki) via the transducer. After the guinea pig was treated with galamine (1 mg/kg, i.v.), PAF (1 μg/kg) dissolved in a physiological saline solution was administered to the guinea pig via a jugular venous cannula and the bronchoconstriction reaction induced thereby was recorded for 15 minutes. The drug (30 mg/kg) suspended in a 5% gum arabic solution was administered orally 1 hour before the injection of PAF.

In the case of `CNS(=O)(=O)CCCSc1ccc2nccn2n1` [Example 3], the inhibition in vivo at 30 mg/kg was determined as 41%.

With `O=S(=O)(CCCSc1ccc2nccn2n1)NC1CC1` [Example 6], the inhibition in vivo at 30 mg/kg was 47%.
